Source: ChEMBL document CHEMBL1150861, “Triterpene saponins from Tupidanthus calyptratus” (J Nat Prod, 2001)
Activity calls are given as the source filed them. The rule behind the calls is not given here.

Assays:
[1] = test system: HEK293; experiment: Antiproliferative activity against HEK293 cells […] after 72 hrs by MTT assay; format: cell-based; details: human, hek293, 72 h
[2] = test system: J774; experiment: Antiproliferative activity against mouse J774 cells […] after 72 hrs by MTT assay; format: functional, cell-based
[3] = test system: WEHI-164; experiment: Antiproliferative activity against mouse WEHI164 cells […] after 72 hrs by MTT assay; format: functional, cell-based

## C[C@@H]1[C@H]2C3=CC[C@@H]4[C@@]5(C)C[C@@H](O)[C@H](O[C@@H]6OC[C@H](O)[C@H](O)[C@H]6O)[C@@](C)(CO)[C@@H]5CC[C@@]4(C)[C@]3(C)CC[C@@]2(C(=O)O[C@@H]2O[C@H](CO)[C@@H](O)[C@H](O)[C@H]2O)CC[C@]1(C)O
[1]
  Activity: Not Active
[2]
  Activity: inactive
[3]
  Activity: inactive

## C[C@@H]1[C@H]2C3=CC[C@@H]4[C@@]5(C)C[C@@H](O)[C@H](O[C@@H]6OC[C@H](O)[C@H](O[C@@H]7OC[C@@H](O)[C@H](O)[C@H]7O)[C@H]6O)[C@@](C)(CO)[C@@H]5CC[C@@]4(C)[C@]3(C)CC[C@@]2(C(=O)O[C@@H]2O[C@H](CO[C@@H]3O[C@H](CO)[C@@H](O)[C@H](O)[C@H]3O)[C@@H](O)[C@H](O)[C@H]2O)CC[C@]1(C)O
[1]
  Activity: Not Active
[2]
  Activity: inactive
[3]
  Activity: inactive

## C[C@@H]1[C@H]2C3=CC[C@@H]4[C@@]5(C)C[C@@H](O)[C@H](O[C@@H]6OC[C@H](O)[C@H](O[C@@H]7OC[C@@H](O)[C@H](O)[C@H]7O)[C@H]6O)[C@@](C)(CO)[C@@H]5CC[C@@]4(C)[C@]3(C)CC[C@@]2(C(=O)O[C@@H]2O[C@H](CO)[C@@H](O)[C@H](O)[C@H]2O)CC[C@]1(C)O
[1]
  Activity: Not Active
[2]
  Activity: inactive
[3]
  Activity: inactive

## C[C@@H]1O[C@@H](OC[C@H]2O[C@@H](OC(=O)[C@]34CC[C@](C)(O)[C@H](C)[C@H]3C3=CC[C@@H]5[C@@]6(C)CC[C@H](O[C@@H]7OC[C@H](O)[C@H](O[C@@H]8OC[C@@H](O)[C@H](O)[C@H]8O)[C@H]7O)[C@@](C)(CO)[C@@H]6CC[C@@]5(C)[C@]3(C)CC4)[C@H](O)[C@@H](O)[C@@H]2O)[C@H](O)[C@H](O)[C@H]1O
[1]
  Activity: Not Active
[2]
  Activity: inactive
[3]
  Activity: inactive
